According to patent US20120178765A1, “NOVEL GLUCOKINASE ACTIVATORS AND PROCESSES FOR THE PREPARATION THEREOF” (YUHAN CORPORATION, priority 2009, published 2012):
Where a name gives a salt, the structure may show the parent alone.

The compounds below were run against T1, Glucokinase (Homo sapiens, UniProt P35557) (assay: Glucokinase activation assay (NADPH absorbance at 340 nm)). Conditions: glucokinase (ProteinOne Inc.), 5 mM D(+)-glucose, 24° C., 90 minutes.
T1 construct: purchased ProteinOne Inc
T1 sequence (P35557 1-465): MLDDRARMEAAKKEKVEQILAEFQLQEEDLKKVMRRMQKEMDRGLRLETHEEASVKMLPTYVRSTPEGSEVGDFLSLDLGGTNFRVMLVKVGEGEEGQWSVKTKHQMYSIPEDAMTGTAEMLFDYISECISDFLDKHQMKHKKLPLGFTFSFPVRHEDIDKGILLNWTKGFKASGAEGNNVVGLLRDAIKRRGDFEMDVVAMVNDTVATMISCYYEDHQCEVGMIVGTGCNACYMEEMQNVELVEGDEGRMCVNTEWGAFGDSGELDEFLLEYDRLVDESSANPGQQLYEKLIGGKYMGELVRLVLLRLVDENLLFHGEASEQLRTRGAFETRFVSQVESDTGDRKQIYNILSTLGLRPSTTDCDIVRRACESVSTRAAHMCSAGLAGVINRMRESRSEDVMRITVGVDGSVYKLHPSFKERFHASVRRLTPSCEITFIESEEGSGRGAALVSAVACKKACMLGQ
Assay type: biochemical
Procedure: The amounts of glucokinase activation were determined by measuring the levels of NADPH (the final metabolite of glucose through glucokinase-mediated phospho-rylation) and then calculating to glucokinase activities.
Glucokinase (ProteinOne Inc.) was added, in the concentration of 100 ng/uL, to a enzyme-reaction medium (25 mM HEPES pH 7, 25 mM KCL, 1 mM MgCl, 5 mM D(+)-glucose, 1 mM ATP, 1 mM NADP, 1 mM DTT, and 2.5 u/mL G6PDH). Each compound in predetermined concentrations was added to the enzyme-reaction medium and then absorbance (First Absorbance) was measured at 340 nm of wavelength. After measuring the first absorbance, each reaction mixture was incubated at 24° C. for 90 minutes and then absorbance (Second Absorbance) was re-measured at 340 nm of wavelength. Using changes between First Absorbance and Second Absorbance, glucokinase activity was calculated. In the calculation, a maximum activity of the test compound (Emax), in comparison to the control group (no treatment of compound) was determined and then EC50 was calculated using the software for statistical analysis “Prism”, based on the activity-changes according to concentrations of the test compounds.
The amounts of glucokinase activation of the compounds of Comparative Examples 1 and 2 were determined, in accordance with the same procedures as in Test Example 1.

Compound	EC50
3-[2-(3,5-dimethoxyphenyl)ethyl]-5-(2-methoxy-(1S)-methyl-ethoxy)-N-(1-methyl-1H-pyrazol-3-yl)-benzamide [Example 99]	117 nM
3-[trans-2-(3,5-dimethoxyphenyl)vinyl]-5-(2-methoxy-(1S)-methyl-ethoxy)-N-(pyrazin-2-yl)-benzamide [Example 50]	311 nM
3-[trans-2-(2,3,5-trifluorophenyl)vinyl]-5-(2-methoxy-(1S)-methyl-ethoxy)-N-(5-fluorothiazol-2-yl)-benzamide [Example 27]	86.6 nM
3-{2-[4-(3,5-dimethoxybenzoylamino)phenyl]ethyl}-5-(2-methoxy-(1S)-methyl-ethoxy)-N-(thiazol-2-yl)-benzamide [Example 141]	355 nM
3-[2-(3-acetylaminophenyl)ethyl]-5-(2-methoxy-(1S)-methyl-ethoxy)-N-(thiazol-2-yl)-benzamide [Example 118]	208 nM
CC(C)/C=C\c1cc(OC(C)C)cc(C(=O)Nc2ncc(C(=O)O)s2)c1 [Comparative Example 2, reference compound]	1870 nM
3-[2-(4-butyrylaminophenyl)ethyl]-5-(2-methoxy-(1S)-methyl-ethoxy)-N-(thiazol-2-yl)-benzamide [Example 133]	322 nM
COC[C@H](C)Oc1cc(CCc2c(F)cccc2F)cc(C(=O)Nc2ccc(C(=O)O)cn2)c1 [Example 109, 3-[2-(2,6-difluorophenyl)ethyl]-5-(2-methoxy-(1S)-methyl-ethoxy)-N-(nicotinic acid-6-yl)-benzamide]	208 nM
3-[trans-2-(4-fluorophenyl)vinyl]-5-(2-methoxy-(1S)-methyl-ethoxy)-N-(thiazol-2-yl)-benzamide [Example 8]	86.4 nM
3-{2-[3-(4-chlorobenzoylamino)phenyl]ethyl}-5-(2-methoxy-(1S)-methyl-ethoxy)-N-(t hiazol-2-yl)-benzamide [Example 126]	364 nM
COC[C@H](C)Oc1cc(/C=C/c2ccccc2[N+](=O)[O-])cc(C(=O)Nc2nccs2)c1 [Example 13, 3-[trans-2-(2-nitrophenyl)vinyl]-5-(2-methoxy-(1S)-methyl-ethoxy)-N-(thiazol-2-yl)-benzamide]	12.7 nM
CC(C)COc1cc(/C=C/c2ccccc2F)cc(C(=O)Nc2nccs2)c1 [Example 70, 3-[trans-2-(2-fluorophenyl)vinyl]-5-isobutoxy-N-(thiazol-2-yl)-benzamide]	102 nM
3-[trans-2-(2-bromophenyl)vinyl]-5-(2-methoxy-(1S)-methyl-ethoxy)-N-(1-methyl-1H-pyrazol-3-yl)-benzamide [Example 43]	322 nM
CCOC(=O)Nc1ccc(CCc2cc(O[C@@H](C)COC)cc(C(=O)Nc3nccs3)c2)cc1 [Example 136, 3-{2-[4-(carbamic acid ethyl ester)phenyl]ethyl}-5-(2-methoxy-(1S)-methyl-ethoxy)-N-(thiazol-2-yl)-benzamide]	270 nM
COC[C@H](C)Oc1cc(/C=C/c2ccccc2[N+](=O)[O-])cc(C(=O)Nc2ccc(C(=O)OC)cn2)c1 [Example 62, 3-[trans-2-(2-nitrophenyl)vinyl]-5-(2-methoxy-(1S)-methyl-ethoxy)-N-(nicotinic acid-3-methyl ester-6-yl)-benzamide]	106 nM
3-[trans-2-(2,6-difluorophenyl)vinyl]-5-(2-methoxy-(1S)-methyl-ethoxy)-N-(pyrazin-2-yl)-benzamide [Example 58]	212 nM
3-[trans-2-(2,3-difluorophenyl)vinyl]-5-(2-methoxy-(1S)-methyl-ethoxy)-N-(thiazol-2-yl)-benzamide [Example 9]	27.5 nM
COC[C@H](C)Oc1cc(CCc2ccc(N)cc2)cc(C(=O)Nc2nccs2)c1 [Example 112, 3-[2-(4-aminophenyl)ethyl]-5-(2-methoxy-(1S)-methyl-ethoxy)-N-(thiazol-2-yl)-benzamide hydrochloride]	126 nM
COC[C@H](C)Oc1cc(/C=C/c2ccccc2OC)cc(C(=O)Nc2ccc(C(=O)O)cn2)c1 [Example 73, 3-[trans-2-(2-methoxyphenyl)vinyl]-5-(2-methoxy-(1S)-methyl-ethoxy)-N-(nicotinic acid-6-yl)-benzamide]	82.8 nM

Compound	EC50
COC[C@H](C)Oc1cc(/C=C/c2c(F)cccc2F)cc(C(=O)Nc2ccc(C(=O)OC)cn2)c1 [Example 69, 3-[trans-2-(2,6-difluorophenyl)vinyl]-5-(2-methoxy-(1S)-methyl-ethoxy)-N-(nicotinic acid-3-methyl ester-6-yl)-benzamide]	146 nM
3-[2-(2-methanesulfonylaminophenyl)ethyl]-5-(2-methoxy-(1S)-methyl-ethoxy)-N-(thiazol-2-yl)-benzamide [Example 113]	72.1 nM
COC[C@H](C)Oc1cc(/C=C/c2cccc(F)c2F)cc(C(=O)Nc2ccc(C(=O)O)cn2)c1 [Example 78, 3-[trans-2-(2,3-difluorophenyl)vinyl]-5-(2-methoxy-(1S)-methyl-ethoxy)-N-(nicotinic acid-6-yl)-benzamide]	123 nM
3-[trans-2-(2,3-difluorophenyl)vinyl]-5-(2-methoxy-(1S)-methyl-ethoxy)-N-(5-fluorothiazol-2-yl)-benzamide [Example 24]	47.3 nM
3-{2-[3-(2-(thiophen-2-yl)acetylamino)phenyl]ethyl}-5-(2-methoxy-(1S)-methyl-ethoxy)-N-(thiazol-2-yl)-benzamide [Example 129]	271 nM
3-{2-[3-(3-phenyl-ureido)phenyl]ethyl}-5-(2-methoxy-(1S)-methyl-ethoxy)-N-(thiazol-2-yl)-benzamide [Example 130]	227 nM
3-[2-(2,3-difluorophenyl)ethyl]-5-(2-methoxy-(1S)-methyl-ethoxy)-N-(1-methyl-1H-pyrazol-3-yl)-benzamide [Example 95]	418 nM
3-[2-(4-benzoylaminophenyl)ethyl]-5-(2-methoxy-(1S)-methyl-ethoxy)-N-(thiazol-2-yl)-benzamide [Example 138]	292 nM
3-[trans-2-(2,3-dimethoxyphenyl)vinyl]-5-(2-methoxy-(1S)-methyl-ethoxy)-N-(5-fluorothiazol-2-yl)-benzamide [Example 28]	118 nM
COC[C@H](C)Oc1cc(/C=C/c2cc(OC)cc(OC)c2)cc(C(=O)Nc2ccn(C)n2)c1 (stereo in doubt) [Example 40, 3-[trans-2-(3,5-dimethoxyphenyl)vinyl]-5-(2-methoxy-(1S)-methyl-ethoxy)-N-(1-methyl-1H-pyrazol-3-yl)-benzamide]	174 nM
3-[trans-2-(4-bromophenyl)vinyl]-5-(2-methoxy-(1S)-methyl-ethoxy)-N-(1-methyl-1H-pyrazol-3-yl)-benzamide [Example 45]	181 nM
3-{2-[3-(4-fluorobenzoylamino)phenyl]ethyl}-5-(2-methoxy-(1S)-methyl-ethoxy)-N-(thiazol-2-yl)-benzamide [Example 125]	340 nM
3-[trans-2-(2,4-difluorophenyl)vinyl]-5-(2-methoxy-(1S)-methyl-ethoxy)-N-(5-fluorothiazol-2-yl)-benzamide [Example 25]	70.2 nM
CC(C)COc1cc(/C=C/c2cc(F)ccc2F)cc(C(=O)Nc2nccs2)c1 [Example 71, 3-[trans-2-(2,5-difluorophenyl)vinyl]-5-isobutoxy-N-(thiazol-2-yl)-benzamide]	84.8 nM
3-[2-(3-aminophenyl)ethyl]-5-(2-methoxy-(1S)-methyl-ethoxy)-N-(thiazol-2-yl)-benzamide [Example 91]	68.9 nM
3-{2-[4-(phenylacetylamino)phenyl]ethyl}-5-(2-methoxy-(1S)-methyl-ethoxy)-N-(thiazol-2-yl)-benzamide [Example 137]	270 nM
3-[trans-2-(2-methoxyphenyl)vinyl]-5-(2-methoxy-(1S)-methyl-ethoxy)-N-(thiazol-2-yl)-benzamide [Example 16]	8.4 nM
COC[C@H](C)Oc1cc(CCc2cccc(N)c2)cc(C(=O)Nc2nccs2)c1 [Example 111, 3-[2-(3-aminophenyl)ethyl]-5-(2-methoxy-(1S)-methyl-ethoxy)-N-(thiazol-2-yl)-benzamide hydrochloride]	54.7 nM
3-[trans-2-(2,5-difluorophenyl)vinyl]-5-(2-methoxy-(1S)-methyl-ethoxy)-N-(pyrazin-2-yl)-benzamide [Example 57]	283 nM
